Test results taken from patent publication EP0646015B1, “CONTRACEPTIVE VACCINE” (THE UNIVERSITY OF CONNECTICUT, priority 1992, dated 1993).
Where “and” joins values, the source holds several entries; their conditions need not be identical. Identical values can stand only once.

Test system: sperm-egg fusion
Assay: sperm-egg fusion inhibition assay
Format: cell-based, guinea pig
Design: inhibits sperm-egg fusion / % Inhibition: concentration or dose not given beside the values
Experimental: The fusion inhibition assay was carried out as follows. Eggs were collected from guinea pig ovaries. The eggs were incubated in tissue culture medium overnight. The zona pellucida was removed with a mixture of proteases. The zona pellucida free eggs were incubated in culture media with peptide at a specified concentration for 30 minutes.
Sperm collected from the epididymis of male guinea pigs was capacitated by incubation and acrosome reacted as described by Fleming and Yanagimachi (Gamete Res. 4: 253-273 (1981)) and added to the eggs and incubated for 15 minutes. The eggs were then transferred to a sperm free culture medium and incubated for an additional 1 hour and 45 minutes. The eggs were then fixed and stained as described by Primakoff et al. (J. Cell. Biol. 104: 141 (1987)). The total number of swollen sperm heads were then counted. Swollen sperm heads are an indication that the sperm and egg have fused.
On the basis of these observations, several indices are calculated. The fertilization index (F.I.) is determined by dividing the total number of swollen heads by the total number of eggs. The fertilization rate (F.R.) is the percentage of eggs fertilized. The percent inhibition is determined by dividing the fertilization index of the experimental peptide by the fertilization index of the control peptide.

CSTDEC
F.R. (Table 4, TDE peptides compared with no peptide control): 8% and 11%
% Inhibition (Table 4, relative to F.I. of no peptide control of the same experiment): 89% and 95%
% Inhibition (Table 5, relative to F.I. of control peptide GRGES of the same experiment): 90% and 98%
inhibition of sperm-egg fusion (in words) (compared to no peptide or control peptide): strongly inhibited
inhibits sperm-egg fusion (when the fertilization index is near the normal level of 1 sperm per egg, compared with no peptide (Table 4)): 89%
